# Experimental data as given in US20160046904A1, “Method For Culturing Hepatoblast-Like Cells And Culture Product Thereof” (NATIONAL INSTITUTES OF BIOMEDICAL INNOVATION, HEALTH AND …, priority 2013, published 2016).
# Experiments:
# [1] = system: HBCs derived from ES cells; assay: AFP expression of cells cultured on various laminin-coated culture dishes; format: cell-based, human; settings: cells cultured on laminin-coated dish, compared with cells immediately after passage (P0) (FIG. 9)
# Method: (§1) In Example 1 and Comparative Example 1, with regard to HBCs derived from ES cells obtained in Reference Example 2, properties of cells treated with laminins were confirmed. The coating treatment was performed on cell culture dishes by using various types of human laminins with different isoforms (laminin 111 (LN111), laminin 211 (LN211), laminin 411 ([…]), and laminin 511 (LN511)). The coating treatment was conducted by preparing 20 μg/ml of each Laminin Coating Solution, adding the Laminin Coating Solution to each well at 5 μg/cm^2, and leaving the cell culture dishes at room temperature for 1 hour or more.
# (§2) Next, the cells on day 9 after treated by the same procedure as in Reference Example 2 were seeded on each well of various types of laminin coated culture dishes at 7.5×10^4 cells/cm^2, the medium was exchanged after 15 minutes, and cells attached to the dishes were used as HBCs and cells not attached to the dishes were used as NHBCs (see FIG. 5). With regard to cells before passage (the cell population which contained both HBCs and NHBCs: before), HBCs, and NHBCs, the expressions of integrin α6 (ITGA6) and integrin β1 (ITGB1) were confirmed. As a result, almost all cells of HBCs were confirmed to be co-positive (FIG. 7). The HBCs attached to the dishes were each further cultured for 7 days. […]
# [2] = system: HBCs derived from ES cells (H9); assay: ALB/CK7 colony count of HBCs cultured on laminin-coated culture dishes (immunostaining); format: cell-based, human; settings: HBCs seeded at 200 cells/cm^2 on laminin-coated dish, medium 3, 5 days after seeding
# Method: as §1
# In Example 2 and Comparative Example 2, HBCs derived from ES cells (H9) obtained in Reference Example 2 were seeded in each well of various types of laminin-coated culture dishes at 200 cells/cm^2 in a similar manner to Example 1 and Comparative Example 1, the HBCs were cultured by using the medium 3, and the expressions of ALB and CK7 by cultured cells were confirmed. The HBCs were fixed by using a 4% paraformaldehyde solution 5 days after seeding the HBCs, immunostaining was performed, and thereafter, the numbers of colonies which were ALB positive (+)/CK7 positive (+), ALB positive (+)/CK7 negative (−) and ALB negative (−)/CK7 […] were counted. When the cells were cultured in the LN111-coated culture dish, the highest number of the ALB positive (+)/CK7 positive (+) colonies, which were colonies of hepatoblast-like cells, was able to be confirmed.
# [3] = system: HBCs from human ES cells (H9); assay: Marker positive rates of HBCs passaged 8 times on LN111- or LN111E8-coated culture dish (flow cytometry); format: cell-based
# Method: By the same procedure as in Example 9, HBCs were seeded to each well of various types of laminin coated culture dishes at 7.5×10^4 cells/cm^2 by using a LN111- or LN111E8-coated culture dish, and the medium was exchanged after 15 minutes (the number of passages of 0, day 9). After that, the cells were cultured for from 6 days to 7 days with the medium being exchanged every day, and a cell suspension was prepared so that the number of cells was 7.5×10^4 cells/cm^2. Then, the cells were passaged on the LN111-coated culture dish or the LN111E8-coated culture dish. At the time when such passage operations were repeated 8 times (P8), the positive rate of AFP (%) was confirmed by flow cytometry analysis. […] In addition, also with regard to markers other than AFP (CD133, EpCAM, ALB, CK7, and CK19), their positive rates were confirmed by flow cytometry analysis at the time when the passage culture was repeated up to 8 times (P8).
# [4] = system: HBCs derived from ES cells (H9); assay: Differentiation induction of LN111-maintained HBCs to hepatocytes (HGF, OsM, DEX on Matrigel); format: cell-based, human; settings: HBC P10 maintained on LN111 vs HBC P0; 14 days differentiation
# Method: In view of the foregoing, in Example 5, HBCs (H9) with the number of passages of 0 (HBC P0), HBCs (H9) with the number of passages of 10 (HBC P10), and HBCs derived from a single cell (HBC clone) were cultured in a medium containing HGF, OsM (20 ng/ml), and DEX (10^−6 M) on Matrigel for 14 days, and the expression of each of marker genes before and after the differentiation induction treatment into liver by HGF, OsM, and DEX was confirmed. Clone cells were obtained by seeding cells on a culture dish at 200 cells/cm^2. The expression of each of gene markers was confirmed by real-time RT-PCR. Commercially available primer sets and reagents were used for real-time RT-PCR measurement. […]
# Each of relative expression levels of marker genes of mature hepatocytes was confirmed by defining the expression level by human frozen hepatocytes cultured for 48 hours after being seeded on a culture dish as 1. […] It was confirmed that the differentiation rate into mature hepatocytes of hepatocytes obtained by differentiation induction on the HBCs (H9) with the number of passages of 10 (HBC P10) was higher than that of the hepatocytes obtained by differentiation induction on the HBCs (HBC P0), also from the ASGR1 positive cell rates analyzed by flow cytometry (FIG. 16A) and the amounts of ALB secretion and Urea secretion (FIGS. 16B and 16C).
# [5] = system: HBCs derived from ES cells (H9) and HBCs derived from iPS cells (Dotcom); assay: Repeated passage (15 times) of HBCs on LN111-coated culture dish: cell number and AFP flow cytometry; format: cell-based, human
# Method: In Example 3, the proliferative capacities of HBCs derived from ES cells (H9) obtained in Reference Example 2 and HBCs derived from iPS cells (Dotcom) generated by the same procedure were confirmed. The cells derived from ES cells or those derived from iPS cells on day 9 obtained by treating the cells by the same procedure as in Reference Example 2 were seeded in each well of the LN111-coated culture dish at 7.5×10^4 cells/cm^2, and the medium was exchanged after 15 minutes (the number of times of passage was 0, on day 9). After that, the cells were cultured for from 6 days to 7 days with the medium being exchanged every day, a cell suspension was prepared so that the number of cells was 7.5×10^4 cells/cm^2, and the cells were passaged on the LN111-coated culture dish. Such passage operations were performed 15 times.
# [6] = system: HBCs derived from ES cells; assay: Proliferation of HBCs on various laminin-coated culture dishes; format: cell-based, human; settings: attached HBCs cultured for 7 days; compared among LN111, LN211, LN411, LN511 coated dishes (FIG. 8)
# Method: as §1, §2
# [7] = system: HBCs derived from ES cells (H9); assay: Differentiation induction of LN111-maintained HBCs to bile duct epithelial cells (EGF, ILGF2, collagen gel); format: cell-based, human; settings: HBC P10 maintained on LN111 vs HBC P0; 14 days differentiation
# Method: Specifically, in Example 6, HBCs (H9) without passage (HBC P0), HBCs passaged 10 times (HBC P10), and HBCs derived from a single cell (clone) were embedded in collagen gel by using a medium containing EGF (50 ng/ml) and ILGF2 (20 ng/ml), and were cultured for 14 days. Then, the expression of each of marker genes before and after the differentiation induction treatment to a bile duct by EGF and ILGF2 was confirmed. The expression was confirmed by a RT-PCR technique (FIG. 17). Commercially available primer sets and reagents were used for RT-PCR measurement. SOX9 and Type IV collagen are markers of bile duct epithelial cells, and ALB and αAT are markers of mature hepatocytes.
# Each of relative expression levels of marker genes of bile duct epithelial cells and mature hepatocytes was confirmed by defining the expression level in cells of […] before being subjected to the differentiation induction as 1. The expressions of markers of bile duct epithelial cells were increased by the differentiation induction treatment. In addition, the expression levels of bile duct marker genes (SOX9 and Type IV collagen) by bile duct epithelial cells which were induced to differentiate from HBC P10 were higher than those which were induced to differentiate from HBC P0 (FIG. 17).
Substance,expression of AFP [1],number of ALB+/CK7+ colonies [2],number of ALB+/CK7− colonies [2],number of ALB−/CK7+ colonies [2],positive rate of AFP after passage ([3]; passaged 8 times (P8) (FIG. 24)),"positive rates of markers other than AFP (CD133, EpCAM, ALB, CK7, CK19) ([3]; passaged 8 times (P8) (FIG. 25))",differentiation efficiency and differentiation ability to hepatocytes [4],"AFP positive cells ([5]; HBC P1, P10, P15, flow cytometry (FIG. 11))","proliferation of cultured cells over passages ([5]; passage every 6 to 7 days, 15 passages (FIG. 10))",proliferation rate of HBCs [6],differentiation ability to bile duct epithelial cells [7]
"LN111: human recombinant laminin 111 (α1β1γ1), used to coat cell culture dishes",expressed AFP in a similar manner to a group of cells immediately after passage (P0),82,2,5,expressions of AFP were maintained,expressions of all markers were maintained,improved,high expression rates of AFP regardless of the number of passages,continued to proliferate even after passaged 15 times,highest,improved
"LN211: human recombinant laminin 211, comparative dish coating",,25,3,12,,,,,,,
"LN511: human recombinant laminin 511, comparative dish coating",,14,2,36,,,,,,,
"LN411: human recombinant laminin 411, comparative dish coating",,12,6,31,,,,,,,
